Data published in ChEMBL document CHEMBL5634093, “Elemental exchange: Bioisosteric replacement of phosphorus by boron in drug design” (Eur J Med Chem, 2023).
In brackets after ≈: the same amount, converted by molar mass.

What was measured:
Toxoplasma gondii = experiment: Antiparasitic activity against Toxoplasma gondii tachyzoites infected in human HeLa cells; assay type: functional, organism-based
Trypanosoma cruzi = experiment: Antitrypanosomal activity against Trypanosoma cruzi trypomastigotes assessed as parasite growth inhibition; assay type: functional, organism-based
[1] = Binding affinity to PDE4 (unknown origin) expressed in Escherichia coli using cAMP as substrate assessed as inhibition constant by fluorescence polarization assay; design: species or system Homo sapiens
[2] = Inhibition of human recombinant catalytic domain PDE4 (152 to 484 residues) by fluorescence polarization assay
Autotaxin = Autotaxin (Homo sapiens, UniProt Q13822); experiment: Inhibition of ATX (unknown origin)

Question: With O=C(O)CCc1cccc2c1B(O)OC2 as the molecule, how does the IC50 (Toxoplasma gondii) read?
Answer: 900 nM

Question: For COc1cc(C(=O)/C=C/c2ccc3c(c2)B(O)OC3)ccc1N, which IC50 (Trypanosoma cruzi) is on record?
Answer: 0.01 µg/mL (≈ 0.0323 µM)

Question: Which Ki [1] does the source give for N#Cc1ccc(Oc2ccc3c(c2)COB3O)cc1C#N here?
Answer: 65 nM

Question: With CC(=O)CCCOc1cc(C#N)c(Cl)nc1Oc1ccc2c(c1)COB2O as the molecule, how does the IC50 [2] read?
Answer: 0.32 nM

Question: Which IC50 [2] does the source give for CC(C)OCCOc1cc(C#N)cnc1Oc1ccc2c(c1)COB2O here?
Answer: 3 nM

Question: For O=C(OCc1cc(Cl)cc(Cl)c1)N1CCN(C2CN(C(=O)c3ccc4c(c3)COB4O)C2)CC1, which IC50 (Autotaxin) is on record?
Answer: 130 nM

Question: For O=C1N=C(N2CCN(Cc3ccc(B(O)O)cc3)CC2)S/C1=C/c1ccc(Cl)c(Cl)c1, which IC50 (Autotaxin) is on record?
Answer: 13 nM

Question: For N#Cc1ccc(Oc2ccc3c(c2)COB3O)cc1 [CRISABOROLE], which Ki [1] is on record?
Answer: 173 nM
